Test results as given in patent US20160128988A1, “COMBINATIONS FOR THE TREATMENT OF CANCER COMPRISING A MPS-1 KINASE INHIBITOR AND A MITOTIC INHIBITOR” (BAYER PHARMA AKTIENGESELLSCHAFT, priority 2013, published 2016).

Columns and labels:
[1] = test system: NCI-H1299 human NSCLC xenograft tumors
Procedure: The effect of combination treatment of an Mps-1 inhibitor and paclitaxel was studied in the NCI-H1299 taxane intrinsically resistant human lung carcinoma (NSCLC) xenograft model in nude mice.
(§1) Paclitaxel was applied intravenously once per week upon its respective MTD. Substances were formulated in optimal vehicles to achieve solutions. Animal body weight and tumor size were determined two to three times weekly. […] For combination treatment, the Compound A1 and paclitaxel were applied at the same day within a time frame of 4 hours. Animals of control and monotherapy group (Compound A1 only) were treated for a duration of 28 days. Animals of paclitaxel monotherapy and paclitaxel/Mps-1 inhibitor treatment groups were treated for a duration of 37 days. At the end of the study after one final treatment plasma and tumors were sampled for PK analysis and final tumor weight was determined.
(§2) FIGS. 1A and 1B show the response of NCI-H1299 human NSCLC xenograft tumors to treatment with Compound A1 in combination with paclitaxel. NCI-H1299 human NSCLC tumor cells were implanted s.c. into nude mice on day 0. […] Compound A1 was administered orally (p.o.) upon 0.45 mg/kg twice daily (2QD) for 2 days on/5 days off (2 on/5 off) in monotherapy and in combination with paclitaxel. Paclitaxel was administered intravenously (i.v.) upon 20 mg/kg once daily (QD) once per week (1 on/6 off) in monotherapy and combination therapy. Tumor growth was monitored by determination of the tumor area using calliper measurement two to three times weekly. FIG. 1A: Time course of tumor growth. FIG. 1B: Time course of animal body weight change during the course of the study.

[2] = test system: primary human NSCLC xenograft model LU387; assay: Combination with paclitaxel in primary human NSCLC xenograft model LU387; format: in vivo, nude mice; conditions: for mean tumor size: day 42 post treatment
Procedure: The effect of Compound A1 and paclitaxel compared with a vehicle was evaluated in the subcutaneous primary human NSCLC xenograft model LU387 on nude mice.

[3] = test system: MDA-MB 231 human triple-negative breast cancer xenograft tumors
Procedure: The effect of combination treatment of an Mps-1 kinase inhibitor (Compound A1) and paclitaxel was studied in the MDA-MB 231 human triple-negative (no expression of Her2/neu, progesterone receptor, estrogen receptor) xenograft model in nude mice.
as §1, with “determined” for “determined two to”, “treatment,” for “treatment, the”, “paclitaxel/Mps-1 kinase” for “paclitaxel/Mps-1”, “50” for “37”
as §2, with “MDA-MB 231” for “FIGS. 1A and 1B show the response of NCI-H1299”, “breast cancer” for “NSCLC xenograft tumors to treatment with Compound A1 in combination with paclitaxel. NCI-H1299 human NSCLC tumor”, “1” for “0.45”, “measurement” for “measurement two to”, “3A:” for “1A:”, “3B: Weight of tumors in paclitaxel/Mps-1 kinase inhibitor combination group at the end of the study at day 73 after tumor cell inoculation. FIG. 3C:” for “1B:”

[4] = test system: IGR-OV1 human ovarian carcinoma model
Procedure: Paclitaxel was administered IV QW at 50% of its respective MTD.

A2780cis xenograft model = test system: A2780cis xenograft model
Procedure: The effect of the combination treatment of Compound A1 with paclitaxel was studied in a human ovarian carcinoma model in nude mice, namely in the adaptive cisplatin-resistant and paclitaxel intrinsically-resistant A2780cis xenograft model. […] Paclitaxel was administered IV QW at its respective MTD.

[5] = test system: cisplatin-resistant ovarian cancer cells A2780cis; assay: Mode of action: histopathology of A2780cis tumors after treatment; conditions: Compound A1 single agent 2.5 mg/kg PO 2QD 2 days on/5 days off, samples 24 hours after first administration
Procedure: To explain in vivo the mode of action of an Mps-1 kinase inhibitor in single-agent treatment and combination treatment with a taxane, female NMRI (Naval Medical Research Institute) nude mice were implanted with cisplatin-resistant ovarian cancer cells A2780cis.
Paclitaxel was administered IV (intravenous(ly)) QW (once per week (meaning the 1 day on/6 days off treatment schedule)) at its MTD (24 mg/kg) in single-agent and combination treatments. […] Tumors were embedded in paraffin, sections were prepared and stained with hematoxylin & eosin for histopathological analysis.

[6] = test system: MKN1 human gastric carcinoma model; assay: Combination with paclitaxel in MKN1 human gastric carcinoma model; conditions: Compound A1 single agent 1 mg/kg or 2.5 mg/kg (40 days); paclitaxel and combination (78 treatment days)
Procedure: Compound A1 was administered PO in the 2QD intermittent (2 days on/5 days off) dosing schedule up to the respective MTD in single-agent treatment and at a dose of 40% of the single-agent MTD in combination. Paclitaxel was administered IV QW at its respective MTD. Treatment for all groups started at a tumor size of 27 mm^2, on day 7 after tumor cell inoculation. For combination treatment, Compound A1 and paclitaxel were administered on the same day within a time of 4 hours. Animals of the control and Compound A1 single-agent treatment groups were treated for 40 days. Animals of the paclitaxel single-agent and Compound A1 with paclitaxel combination treatment groups were treated for 78 days.

[7] = Maximum tolerated dose (MTD); format: in vivo, nude mice; conditions: nude, mouse, in vivo; Compound A1 PO 2QD 2 days on/5 days off; paclitaxel IV QW; docetaxel i.v. 1 day on/6 days off; read-out: MTD (maximum tolerated dose), single-agent
[8] = test system: A2780 human ovarian carcinoma model; format: in vivo; conditions: Compound A1 single agent 1 mg/kg and 2.5 mg/kg (8 days); triple combination (17 treatment days)
Procedure: Cisplatin and paclitaxel were administered in combination at their respective MTD, cisplatin intraperitoneally (IP) every second week (Q2W) and paclitaxel IV QW.

[9] = Compound A1 0.45 mg/kg 2QD 2on/5off p.o., paclitaxel 20 mg/kg QD 1on/6off i.v.

## COc1cc(S(C)(=O)=O)ccc1Nc1nc2ccc(-c3ccc(NC(=O)[C@H](C)c4ccc(F)cc4)cc3)cn2n1 [Compound A1]
[1]; [9]
  Fatal Tox: 0/10
  Max. Body weight loss (%): −1%
[1]; Compound A1 0.45 mg/kg 2QD p.o. (28 treatment days), combination with paclitaxel 20 mg/kg i.v. (37 treatment days)
  anti-tumor efficacy (in words): no effect on tumor growth
[1]; mean final tumor weight, Compound A1 0.45 mg/kg 2QD 2on/5off p.o.
  T/C weight: 1.34
[1]; relative mean tumor area, 28 treatment days, Compound A1 0.45 mg/kg 2QD 2on/5off p.o., paclitaxel 20 mg/kg QD 1on/6off i.v.
  T/C area: 1.27
[2]; Compound A1 single agent 1 mg/kg and 2.5 mg/kg, combination with paclitaxel
  antitumor activity (in words): no significant antitumor activity
[2]; day 42, Compound A1 2.5 mg/kg (high dose)
  T/Cvolume: 0.73
[2]; Compound A1 1 mg/kg PO 2QD 2 days on/5 days off over 6 weeks
  mean tumor size: 1788 mm^3
[2]; Compound A1 2.5 mg/kg PO 2QD 2 days on/5 days off over 6 weeks
  mean tumor size: 1137 mm^3
[3]; Compound A1 1 mg/kg 2QD 2on/5off p.o., paclitaxel 20 mg/kg QD 1on/6off i.v.
  Fatal Tox: 0/10
[3]; Compound A1 1 mg/kg 2QD p.o. (28 treatment days), combination with paclitaxel 20 mg/kg i.v. (50 treatment days)
  anti-tumor efficacy (in words): no effect on tumor growth
[3]; Compound A1 1 mg/kg 2QD p.o., paclitaxel 20 mg/kg i.v.
  tolerability (in words): well tolerated without critical body weight loss or toxicities
[3]; mean final tumor weight, Compound A1 1 mg/kg 2QD 2on/5off p.o.
  T/C weight: 0.92
[3]; relative mean tumor area, 28 treatment days, Compound A1 1 mg/kg 2QD 2on/5off p.o., paclitaxel 20 mg/kg QD 1on/6off i.v.
  T/C area: 0.91
[4]; 38 treatment days, Compound A1 2.5 mg/kg PO 2QD 2 days on/5 days off
  T/Cweight: 0.52
[4]; 38 treatment days, Compound A1 single agent 2.5 mg/kg PO 2QD, paclitaxel 12 mg/kg IV QW, combination with Compound A1 2 mg/kg PO 2QD
  relative T/Carea: 0.57
[4]; Compound A1 2.5 mg/kg single agent (38 days), paclitaxel 12 mg/kg and combination with Compound A1 2 mg/kg (treatment day 38 to 59)
  anti-tumor efficacy (in words): moderate single-agent efficacy
[4]; mouse, in vivo
  tolerability (in words): well tolerated without critical body weight loss or toxicities
A2780cis xenograft model; 14 treatment days, Compound A1 1 mg/kg PO 2QD 2 days on/5 days off
  T/Cweight: 0.87
A2780cis xenograft model; 14 treatment days, Compound A1 1 mg/kg PO 2QD 2 days on/5 days off, paclitaxel 24 mg/kg IV QW
  relative T/Carea: 0.89
A2780cis xenograft model; Compound A1 1 mg/kg (14 days), combination with paclitaxel 24 mg/kg (36 treatment days)
  anti-tumor efficacy (in words): weak single-agent efficacy
A2780cis xenograft model; mouse, in vivo
  tolerability (in words): well tolerated without critical body weight loss or toxicities
[5]
  histopathological phenotype of tumor tissue: induction of a pleomorphic phenotype, including multinuclearity
[6]
  anti-tumor efficacy (in words): no effect on tumor growth inhibition
[7]
  MTD: 2.5 mg/kg
[8]
  anti-tumor efficacy (in words): weak single-agent efficacy
